Test results taken from PubChem BioAssay (NCI).
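The concentration for 50% growth inhibition is given as GI50. TGI: total growth inhibition.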

How the values were obtained:
Assay in all cases: NCI tumour cell line growth inhibition, 384-well format
[1] = tested on: HOP-62 NSCLC
[2] = tested on: MDA-MB-231 breast
[3] = tested on: SF-295 CNS
[4] = tested on: SK-MEL-28 melanoma
[5] = tested on: NCI/ADR-RES ovarian
[6] = tested on: BT-549 breast
[7] = tested on: NCI-H522 lung
[8] = tested on: HL-60(TB) leukemia
[9] = tested on: M14 melanoma
[10] = tested on: SK-MEL-5 melanoma
[11] = tested on: OVCAR-5 ovarian
[12] = tested on: SN12C renal
[13] = tested on: SNB-75 CNS
[14] = tested on: ACHN renal
[15] = tested on: SF-539 CNS
[16] = tested on: 786-0 renal
[17] = tested on: TK-10 renal
[18] = tested on: COLO 205 colon
[19] = tested on: OVCAR-8 ovarian
[20] = tested on: HCT-15 colon
[21] = tested on: UACC-257 melanoma
[22] = tested on: A498 renal
[23] = tested on: SF-268 CNS
[24] = tested on: HCC-2998 colon
[25] = tested on: HS 578T breast
[26] = tested on: SNB-19 CNS
[27] = tested on: SW-620 colon
[28] = tested on: NCI-H322M lung
[29] = tested on: CCRF-CEM leukemia
[30] = tested on: IGROV1 ovarian
[31] = tested on: HT29 colon
[32] = tested on: HOP-92 NSCLC
[33] = tested on: PC-3 prostate
[34] = tested on: NCI-H460 NSCLC
[35] = tested on: OVCAR-4 ovarian
[36] = tested on: SR leukemia
[37] = tested on: T-47D breast
[38] = tested on: NCI-H23 lung
[39] = tested on: MDA-MB-435 melanoma
[40] = tested on: MCF7 breast
[41] = tested on: UACC-62 melanoma
[42] = tested on: DU-145 prostate
[43] = tested on: CAKI-1 renal
[44] = tested on: K-562 leukemia
[45] = tested on: NCI-H226 lung
[46] = tested on: EKVX NSCLC
[47] = tested on: A549 NSCLC
[48] = tested on: RPMI-8226 leukemia
[49] = tested on: LOX IMVI melanoma
[50] = tested on: MALME-3M melanoma
[51] = tested on: MOLT-4 leukemia
[52] = tested on: RXF 393 renal
[53] = tested on: SK-OV-3 ovarian
[54] = tested on: KM12 colon
[55] = tested on: OVCAR-3 ovarian
[56] = tested on: MDA-MB-468 breast
[57] = tested on: UO-31 renal

Question: For `O=C(CC1(O)C(=O)Nc2c(Cl)ccc(Cl)c21)c1ccc(C2CC2)cc1` (centres undefined), which GI50 [1] is on record?
Answer: 0.199 µM

Question: And the TGI [1]?
Answer: 13.4 µM

Question: What about the GI50 [2] of the same compound?
Answer: 0.182 µM

Question: And the TGI [2]?
Answer: 16.3 µM

Question: What about the GI50 [3] of the same compound?
Answer: 0.112 µM

Question: What about the TGI [3] of the same compound?
Answer: 0.853 µM

Question: What about the GI50 [4] of the same compound?
Answer: 0.221 µM

Question: And the TGI [4]?
Answer: 18.9 µM

Question: What about the GI50 [5] of the same compound?
Answer: 0.0692 µM

Question: And the TGI [5]?
Answer: 0.276 µM

Question: What about the GI50 [6] of the same compound?
Answer: 0.049 µM

Question: And the TGI [6]?
Answer: 2.73 µM

Question: What about the GI50 [7] of the same compound?
Answer: 0.0451 µM

Question: What about the TGI [7] of the same compound?
Answer: 0.179 µM

Question: And the GI50 [8]?
Answer: 0.0377 µM

Question: What about the TGI [8] of the same compound?
Answer: 0.12 µM

Question: What about the GI50 [9] of the same compound?
Answer: 0.054 µM

Question: And the TGI [9]?
Answer: 0.266 µM

Question: And the GI50 [10]?
Answer: 0.142 µM

Question: And the TGI [10]?
Answer: 0.414 µM

Question: What about the GI50 [11] of the same compound?
Answer: 0.9 µM

Question: What about the TGI [11] of the same compound?
Answer: 17.7 µM

Question: And the GI50 [12]?
Answer: 0.575 µM

Question: And the TGI [12]?
Answer: 20.1 µM

Question: And the GI50 [13]?
Answer: 0.0967 µM

Question: And the TGI [13]?
Answer: 3.17 µM

Question: And the GI50 [14]?
Answer: 0.743 µM

Question: What about the TGI [14] of the same compound?
Answer: 17.2 µM

Question: And the GI50 [15]?
Answer: 0.206 µM

Question: And the TGI [15]?
Answer: 0.907 µM

Question: And the GI50 [16]?
Answer: 0.377 µM

Question: And the TGI [16]?
Answer: 12 µM

Question: And the GI50 [17]?
Answer: 10.4 µM

Question: And the TGI [17]?
Answer: 25.2 µM

Question: And the GI50 [18]?
Answer: 0.124 µM

Question: And the TGI [18]?
Answer: 0.448 µM

Question: What about the GI50 [19] of the same compound?
Answer: 0.257 µM

Question: What about the TGI [19] of the same compound?
Answer: 1.23 µM

Question: What about the GI50 [20] of the same compound?
Answer: 0.0519 µM

Question: What about the TGI [20] of the same compound?
Answer: 2.06 µM

Question: What about the GI50 [21] of the same compound?
Answer: 0.28 µM

Question: And the TGI [21]?
Answer: 2.34 µM

Question: And the GI50 [22]?
Answer: 0.226 µM

Question: And the TGI [22]?
Answer: 10.7 µM

Question: What about the GI50 [23] of the same compound?
Answer: 0.387 µM

Question: What about the TGI [23] of the same compound?
Answer: 11.2 µM

Question: And the GI50 [24]?
Answer: 0.277 µM

Question: And the TGI [24]?
Answer: 4.61 µM

Question: And the GI50 [25]?
Answer: 0.119 µM

Question: What about the TGI [25] of the same compound?
Answer: 0.284 µM

Question: And the GI50 [26]?
Answer: 0.528 µM

Question: And the TGI [26]?
Answer: 15.3 µM

Question: What about the GI50 [27] of the same compound?
Answer: 0.0457 µM

Question: What about the TGI [27] of the same compound?
Answer: 15.5 µM

Question: What about the GI50 [28] of the same compound?
Answer: 0.845 µM

Question: What about the TGI [28] of the same compound?
Answer: 18 µM

Question: What about the GI50 [29] of the same compound?
Answer: 0.13 µM

Question: And the TGI [29]?
Answer: 0.262 µM

Question: What about the GI50 [30] of the same compound?
Answer: 0.882 µM

Question: And the TGI [30]?
Answer: 17 µM

Question: What about the GI50 [31] of the same compound?
Answer: 0.0505 µM

Question: What about the TGI [31] of the same compound?
Answer: 0.248 µM

Question: And the GI50 [32]?
Answer: 0.21 µM

Question: And the TGI [32]?
Answer: 11 µM

Question: And the GI50 [33]?
Answer: 0.372 µM

Question: And the TGI [33]?
Answer: 14.4 µM

Question: What about the GI50 [34] of the same compound?
Answer: 0.225 µM

Question: And the TGI [34]?
Answer: 0.611 µM

Question: And the GI50 [35]?
Answer: 0.369 µM

Question: And the TGI [35]?
Answer: 7.59 µM

Question: What about the GI50 [36] of the same compound?
Answer: 0.0169 µM

Question: And the TGI [36]?
Answer: 0.0337 µM

Question: And the GI50 [37]?
Answer: 0.323 µM

Question: And the TGI [37]?
Answer: 18.2 µM

Question: And the GI50 [38]?
Answer: 0.192 µM

Question: What about the TGI [38] of the same compound?
Answer: 0.759 µM

Question: And the GI50 [39]?
Answer: 0.0245 µM

Question: And the TGI [39]?
Answer: 0.0596 µM

Question: And the GI50 [40]?
Answer: 0.111 µM

Question: What about the TGI [40] of the same compound?
Answer: 13.5 µM

Question: And the GI50 [41]?
Answer: 0.0389 µM

Question: What about the TGI [41] of the same compound?
Answer: 5.04 µM

Question: And the GI50 [42]?
Answer: 0.338 µM

Question: What about the TGI [42] of the same compound?
Answer: 2.49 µM

Question: What about the GI50 [43] of the same compound?
Answer: 0.173 µM

Question: What about the TGI [43] of the same compound?
Answer: 15.2 µM

Question: And the GI50 [44]?
Answer: 0.0462 µM

Question: What about the TGI [44] of the same compound?
Answer: 0.211 µM

Question: What about the GI50 [45] of the same compound?
Answer: 0.732 µM

Question: And the TGI [45]?
Answer: 14.2 µM

Question: What about the GI50 [46] of the same compound?
Answer: 0.385 µM

Question: What about the TGI [46] of the same compound?
Answer: 16.9 µM

Question: What about the GI50 [47] of the same compound?
Answer: 0.546 µM

Question: What about the TGI [47] of the same compound?
Answer: 13.8 µM

Question: And the GI50 [48]?
Answer: 0.133 µM

Question: And the TGI [48]?
Answer: 0.271 µM

Question: And the GI50 [49]?
Answer: 0.434 µM

Question: And the TGI [49]?
Answer: 4.65 µM

Question: What about the GI50 [50] of the same compound?
Answer: 0.0615 µM

Question: What about the TGI [50] of the same compound?
Answer: 10.3 µM

Question: What about the GI50 [51] of the same compound?
Answer: 0.0473 µM

Question: What about the TGI [51] of the same compound?
Answer: 0.135 µM

Question: What about the GI50 [52] of the same compound?
Answer: 0.155 µM

Question: And the TGI [52]?
Answer: 0.793 µM

Question: What about the GI50 [53] of the same compound?
Answer: 0.238 µM

Question: What about the TGI [53] of the same compound?
Answer: 14.1 µM

Question: What about the GI50 [54] of the same compound?
Answer: 0.0747 µM

Question: And the TGI [54]?
Answer: 2.77 µM

Question: And the GI50 [55]?
Answer: 0.0731 µM

Question: What about the TGI [55] of the same compound?
Answer: 0.286 µM

Question: And the GI50 [56]?
Answer: 0.0302 µM

Question: What about the TGI [56] of the same compound?
Answer: 0.0944 µM

Question: And the GI50 [57]?
Answer: 10.6 µM

Question: And the TGI [57]?
Answer: 23 µM
